Experiment [1] has as its target T1, Somatostatin sst1 (Homo sapiens, UniProt P30872).
T1 construct: host or cells: CHO-K1
Briefly: Somatostatin sst1 radioligand binding assay. Particulars: for inhibition at 10 µM / % inh: Conc 10 μM. As for the experimental part: (§1) Compounds of the present invention were assessed for their binding affinity to sst1, sst3, and sst4 receptors by biochemical and radioligand assay according to the following procedures. The assays were conducted by MDS Pharma Services—Taiwan Ltd., Pharmacology Laboratories, 158 Li-The Road, Peitou, Taipei, Taiwan 112, R.O.C.
The protocol for sstl assay was adapted from Liapakis, G., Fitzpatrick, D., Hoeger, C., Rivier, J., Vandlen, R. and Reisine, T. (1996) “Identification of ligand binding determinants in the somatostatin receptor subtypes 1 and 2.”J. Biol. Chem. 271(24): 20331-20339, 1996; and Patel, Y. C. and Srikant, C. B. (1994) “Subtype selectivity of peptide analogs for all five cloned human somatostatin receptors (hsstr 1-5).” Endocrinology 135 (6): 2814-2817, 1994. The protocol were and can be conducted according to the following conditions.
(§2) IC50 values were determined by a non-linear, least squares regression analysis using Data Analysis Toolbox™ (MDL Information Systems, San Leandro, Calif., USA). Where inhibition constants (Ki) are presented, the Ki values were calculated using the equation of Cheng and Prusoff (Cheng, Y., Prusoff, W. H., Biochem. Pharmacol. 22:3099-3108, 1973) using the observed IC50 of the tested compound, the concentration of the radioligand employed in the assay, and the historical values for the Kd of the ligand (obtained experimentally at MDS Pharma Services). Where presented, the Hill coefficient (nH), defining the slope of the competitive binding curve, was calculated using Data Analysis Toolbox™. […] Where IC50, Ki and/or nH data are presented without Standard Error of the Mean (SEM), data are insufficient to be quantitative, and the values presented (Ki, IC50, nH) should be interpreted accordingly.

The target in experiment [2] is T2, Somatostatin sst 3 (Homo sapiens, UniProt P32745).
T2 construct: host or cells: CHO-K1
The experiment in a line: Somatostatin sst3 radioligand binding assay. The conditions noted are these: for inhibition at 10 µM / % inh: Conc 10 μM (Conc not given in some rows). The protocol:
as §1
The protocol for sst3 assay was adapted from Liapakis, G., Fitzpatrick, D., Hoeger, C., Rivier, J., Vandlen, R. and Reisine, T. (1996) “Identification of ligand binding determinants in the somatostatin receptor subtypes 1 and 2.”J. Biol. Chem. 271(24): 20331-20339, 1996; and Patel, Y. C. and Srikant, C. B. (1994) “Subtype selectivity of peptide analogs for all five cloned human somatostatin receptors (hsstr 1-5).” Endocrinology 135 (6): 2814-2817, 1994. The protocol were and can be conducted according to the following conditions.
as §2

Experiment [3] has as its target T3, Somatostatin sst4 (Homo sapiens, UniProt P31391).
T3 construct: host or cells: CHO-K1
Briefly: Somatostatin sst4 radioligand binding assay. The conditions noted are these: for inhibition at 10 µM / % inh: Conc 10 μM (Conc not given in some rows). The protocol: as §1
The protocol for sst4 assay was adapted from Patel, Y. C. and Srikant, C. B. (1994) “Subtype selectivity of peptide analogs for all five cloned human somatostatin receptors (hsstr 1-5).” Endocrinology 135 (6): 2814-2817, 1994. The protocol were and can be conducted according to the following conditions.
as §2

The target in experiment [4] is T4, Sst5 (Cavia porcellus, UniProt H0W1F1).
T4 sequence (H0W1F1 1-365): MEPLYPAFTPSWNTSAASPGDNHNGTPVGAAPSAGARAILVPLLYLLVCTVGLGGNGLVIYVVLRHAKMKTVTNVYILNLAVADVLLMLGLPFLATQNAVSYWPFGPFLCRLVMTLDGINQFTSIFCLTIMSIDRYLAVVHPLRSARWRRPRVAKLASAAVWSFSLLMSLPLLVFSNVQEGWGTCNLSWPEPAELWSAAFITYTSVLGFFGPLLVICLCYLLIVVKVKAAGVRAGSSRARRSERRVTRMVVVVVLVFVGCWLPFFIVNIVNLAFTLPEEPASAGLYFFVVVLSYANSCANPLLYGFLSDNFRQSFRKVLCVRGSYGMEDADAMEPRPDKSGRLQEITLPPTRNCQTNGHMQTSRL
The experiment in a line: Sst5 (functional) assay, Vas def gp. The conditions noted are these: Table 4, Conc 30 μM; for activation at 30 µM: read-out: % Ag.

Where [5] appears, read: Hill coefficient of competitive binding curve.

Where “and” joins values, the source holds several entries; their conditions need not be identical. Equal values may be shown once. Read-outs that look alike come from different tables or passages of the source.

T3 sequence (P31391 whole entry): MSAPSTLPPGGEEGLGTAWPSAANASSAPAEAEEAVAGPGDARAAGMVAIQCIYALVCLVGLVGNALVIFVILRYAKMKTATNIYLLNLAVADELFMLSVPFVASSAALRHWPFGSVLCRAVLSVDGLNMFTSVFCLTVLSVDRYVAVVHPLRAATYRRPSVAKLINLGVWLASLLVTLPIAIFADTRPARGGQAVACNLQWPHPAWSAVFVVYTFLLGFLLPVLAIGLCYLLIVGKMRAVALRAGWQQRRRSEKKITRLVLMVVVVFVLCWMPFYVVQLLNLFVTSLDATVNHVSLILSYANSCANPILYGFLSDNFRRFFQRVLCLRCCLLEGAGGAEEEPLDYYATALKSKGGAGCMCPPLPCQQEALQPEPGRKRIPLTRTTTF
T2 sequence (P32745 whole entry): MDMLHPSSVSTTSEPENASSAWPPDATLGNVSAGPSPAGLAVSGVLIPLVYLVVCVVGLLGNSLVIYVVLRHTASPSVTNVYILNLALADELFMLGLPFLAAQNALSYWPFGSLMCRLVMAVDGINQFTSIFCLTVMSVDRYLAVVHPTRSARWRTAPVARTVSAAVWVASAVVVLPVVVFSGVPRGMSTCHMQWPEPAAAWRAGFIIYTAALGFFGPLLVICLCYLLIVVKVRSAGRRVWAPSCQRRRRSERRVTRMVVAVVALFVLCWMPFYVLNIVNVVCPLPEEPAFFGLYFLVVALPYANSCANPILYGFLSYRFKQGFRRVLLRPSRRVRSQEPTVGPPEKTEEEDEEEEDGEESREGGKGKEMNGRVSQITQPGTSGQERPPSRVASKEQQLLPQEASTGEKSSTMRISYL
T1 sequence (P30872 whole entry): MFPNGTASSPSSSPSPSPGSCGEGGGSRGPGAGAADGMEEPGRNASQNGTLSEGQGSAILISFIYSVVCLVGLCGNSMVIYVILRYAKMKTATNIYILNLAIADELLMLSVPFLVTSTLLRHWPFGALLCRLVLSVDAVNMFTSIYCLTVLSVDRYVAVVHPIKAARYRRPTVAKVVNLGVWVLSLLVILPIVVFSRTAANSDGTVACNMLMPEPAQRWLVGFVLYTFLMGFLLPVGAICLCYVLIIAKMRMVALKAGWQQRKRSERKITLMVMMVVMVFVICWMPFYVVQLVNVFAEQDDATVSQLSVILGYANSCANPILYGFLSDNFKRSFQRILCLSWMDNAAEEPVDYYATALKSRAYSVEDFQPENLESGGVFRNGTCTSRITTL

In the case of Somatostatin-14 [reference compound], the nH in experiment [1] (setting [5]) was 0.628 and 0.747; in experiment [2] (setting [5]), 0.73 and 0.775; in experiment [3] (setting [5]) it was 1.02.
In general, IC50 refers to the concentration that gives 50% inhibition. Read a low IC50 as greater potency in that assay. By Ki is commonly meant a measure of affinity in units of concentration, obtained from inhibition or displacement. Read a low Ki as tighter binding. Take `CN1C(=O)N(Cc2c[nH]c3ccccc23)C(=O)C12CCN(C(=O)CCCN)c1cc(Oc3ccccc3)ccc12` (stereo not drawn) [Compound A, 7-phenoxy-3,4-dihydro-2H-quinoline-1-(4-amino-butanonyl)-4-spiro-5′-1′-methyl-3′-(1H-indol-3-ylmethyl)-imidazolidine-2′,4′-dione]: the results for the IC50 in experiment [1], in experiment [2] and in experiment [3] were 6390 nM, 6.59 µM and 6000 nM, respectively. Also, the Ki in experiment [1] (Cheng-Prusoff from IC50) amounted to 6070 nM; in experiment [2] (Cheng-Prusoff from IC50), 5.85 µM; in experiment [3] (Cheng-Prusoff from IC50), 5270 nM. Besides, the nH in experiment [1] (setting [5]) is listed as 0.433; in experiment [1] (Table 4, human), 0.433; in experiment [2] (setting [5]), 0.564; in experiment [2] (Table 4, human), 0.564; in experiment [3] (setting [5]) it was 0.504; in experiment [3] (Table 4, human) it was 0.504. The inhibition at 10 µM in experiment [1] (Table 4, human) worked out at 54%; in experiment [2] (Table 4, human), 56%; in experiment [3] (Table 4, human), 50%. The activation at 30 µM in experiment [4] was found to be 61%.
With `CN1C(=O)N(Cc2c[nH]c3ccccc23)C2(CCN(C(=O)CCCN)c3cc(Oc4ccccc4)ccc32)C1=O` (stereo not drawn) [C, 7-phenoxy-3,4-dihydro-2H-quinoline-1-(4-amino-butyl-1-one)-4-spiro-5′-1′-(1H-indol-3-ylmethyl)-3′-methyl-imidazoline-2′,4′-dione], the “% inh” value in experiment [1] (Table 4, human) is given as 24%; in experiment [2] (Table 4, human), 25%; in experiment [3] (Table 4, human), 32%.
Regarding “7-(4-methoxy-phenoxy)-3,4-dihydro-2H-quinoline-1-(4-aminobutyl-1-yl-)-4-spiro-5′-1′-methy-3′-[2-(1H-indol-3-yl-ethyl]-imidazoline-2′4′-dione [G]”, the nH in experiment [1] (Table 4, human) is reported as 0.67; in experiment [2] (Table 4, human) it was 0.985; in experiment [3] (Table 4, human), 0.786. The “% inh” value in experiment [1] (Table 4, human) worked out at 64%; in experiment [2] (Table 4, human) it was 60%; in experiment [3] (Table 4, human) it was 68%.
With `Cc1ccc(Oc2ccc3c(c2)N(CCCCN)CCC32C(=O)N(CCc3c[nH]c4ccccc34)C(=O)N2C)cc1C` (stereo not drawn) [I], in experiment [1] (Table 4, human), the IC50 worked out at 3380 nM, affinity was put at a Ki of 3210 nM, the nH is 0.598 and the inhibition at 10 µM is 66%. Further, in experiment [2] (Table 4, human), the IC50 came out at 7.96 µM, the Ki turned out to be 7.06 µM, the nH is 0.977 and the inhibition at 10 µM came to 56%. In experiment [3] (Table 4, human), the IC50 worked out at 2620 nM; the affinity, expressed as Ki, was 2300 nM; the nH came out at 1.16; the inhibition at 10 µM was found to be 71%.
Turning to `Cc1ccc(Oc2ccc3c(c2)N(CCCCN)CCC32C(=O)N(C)C(=O)N2Cc2c[nH]c3ccccc23)cc1` (stereo not drawn) [D, 7-Tolyloxy-3′-4′-dihydro-2H-quinoline-1-(aminobutan-1yl)-4-spiro-5′-1′-(1H-indol-3-yl-methyl)-3′methyl-imidazolidine-2′4′-dione], in experiment [1] (Table 4, human), the IC50 is 807 nM; the affinity, expressed as Ki, was 767 nM; the nH turned out to be 0.654; the inhibition at 10 µM turned out to be 84%. In experiment [2] (Table 4, human), this molecule showed an IC50 of 7.05 µM, a Ki of 6.26 µM, a nH of 2.34 and an inhibition at 10 µM of 68%. Moreover, in experiment [3] (Table 4, human), the IC50 was determined as 5130 nM; the affinity, expressed as Ki, was 4510 nM; the nH turned out to be 1.15; the inhibition at 10 µM turned out to be 68%.
Take `Cc1ccc(Oc2ccc3c(c2)N(CCCCN)CCC32C(=O)N(CCc3c[nH]c4ccccc34)C(=O)N2C)cc1` (stereo not drawn) [H, 7-Tolyloxy-3′-4′-dihydro-2H-quinoline-1-(4-amino-butan-1yl)-4-spiro-5′-1′-methyl-3′[2-(1H-indol-3-yl)-ethyl]-imidazolidine-2′4′-dione]: in experiment [1] (Table 4, human), the IC50 stood at 1240 nM, the Ki was found to be 1180 nM, the nH was 1.38 and the inhibition at 10 µM is 66%. In experiment [2] (Table 4, human), this molecule returned an IC50 of 7.58 µM, a Ki of 6.73 µM, a nH of 0.922 and an inhibition at 10 µM of 57%. In experiment [3] (Table 4, human), this molecule had an IC50 of 649 nM, a Ki of 570 nM, a nH of 1 and an inhibition at 10 µM of 68%.
Take `CN1C(=O)N(Cc2c[nH]c3ccccc23)C2(CCN(CCCCN)c3cc(Oc4ccccc4)ccc32)C1=O` (stereo not drawn) [Compound B, 7-phenoxy-3,4-dihydro-2H-quinoline-1-(4-butylamine)-4-spiro-5′-1′-(1H-indol-3-ylmethyl)-3′-methyl-imidazolidine-2′,4′-dione]: the IC50 is 3250 nM in experiment [1] and 5.84 µM in experiment [2]. The Ki was found to be 3090 nM in experiment [1] (Cheng-Prusoff from IC50) and 5.18 µM in experiment [2] (Cheng-Prusoff from IC50). The nH in experiment [1] (setting [5]) stood at 0.62; in experiment [1] (Table 4, human) it was 0.62; in experiment [2] (setting [5]), 0.722; in experiment [2] (Table 4, human), 0.722. Besides, the inhibition at 10 µM in experiment [1] (Table 4, human) was 57%; in experiment [2] (Table 4, human), 60%; in experiment [3] (Table 4, human) it was 39%.
In experiment [1] (Table 4, human), `CN1C(=O)N(CCc2c[nH]c3ccccc23)C(=O)C12CCN(CCCCN)c1cc(O)ccc12` (stereo not drawn) [F] came in with an IC50 of 1320 nM, a Ki of 1250 nM, a nH of 0.992 and an inhibition at 10 µM of 87%.
As for “7-Phenoxy-3′-4′-dihydro-2H-quinoline 1-(methylpiperidine-4-yl)-4-spiro-5′-1′-(1H-indole-3yl-methyl)-3′-methyl-imidazoline-2′-4′-dione”, the nH was determined as 1.16 in experiment [1] (Table 4, human); 1.3 in experiment [2] (Table 4, human); 1.37 in experiment [3] (Table 4, human). In addition, the “% inh” value in experiment [1] (Table 4, human) was determined as 89%; in experiment [2] (Table 4, human), 86%; in experiment [3] (Table 4, human), 89%.
As for `CN1C(=O)N(CCc2c[nH]c3ccccc23)C(=O)C12CCN(CCCCN)c1cc(Oc3ccc4c(c3)OCO4)ccc12` (stereo not drawn) [J, 7-(Benzo-[1,3]-dioxol-5-yloxy)-3′-4′-dihydro-2H-quinoline-1-(4-amino-butan-1yl)-4-spiro-5′-1′-methyl-3′[2-(-1H-indol-3-yl)-ethyl]-imidazolidine-2′4′-dione], in experiment [1] (Table 4, human), the IC50 came to 699 nM, the Ki was determined as 664 nM, the nH is given as 1.28 and the inhibition at 10 µM was found to be 69%. Further, the activation at 30 µM in experiment [4] is -11%. The inhibition at 30 µM in experiment [4] (guinea pig, read-out: % Ant) amounted to 1%. In experiment [2] (Table 4, human), this molecule gave an IC50 of 3.71 µM, a Ki of 3.29 µM, a nH of 0.915 and an inhibition at 10 µM of 72%. In experiment [3] (Table 4, human), this molecule showed an IC50 of 754 nM, a Ki of 663 nM, a nH of 1.25 and an inhibition at 10 µM of 72%.

Values taken from patent publication US6872827B2, “Somatostatin analogue compounds” (Chembridge Research Laboratories, Inc., priority 2002, dated 2005).
